# Activity calls are given as the source filed them.
# Assays:
# [1] = biological target: T1, Serine/threonine-protein kinase TAO2 (Homo sapiens, UniProt Q9UL54)
# T1 sequence (Q9UL54 whole entry): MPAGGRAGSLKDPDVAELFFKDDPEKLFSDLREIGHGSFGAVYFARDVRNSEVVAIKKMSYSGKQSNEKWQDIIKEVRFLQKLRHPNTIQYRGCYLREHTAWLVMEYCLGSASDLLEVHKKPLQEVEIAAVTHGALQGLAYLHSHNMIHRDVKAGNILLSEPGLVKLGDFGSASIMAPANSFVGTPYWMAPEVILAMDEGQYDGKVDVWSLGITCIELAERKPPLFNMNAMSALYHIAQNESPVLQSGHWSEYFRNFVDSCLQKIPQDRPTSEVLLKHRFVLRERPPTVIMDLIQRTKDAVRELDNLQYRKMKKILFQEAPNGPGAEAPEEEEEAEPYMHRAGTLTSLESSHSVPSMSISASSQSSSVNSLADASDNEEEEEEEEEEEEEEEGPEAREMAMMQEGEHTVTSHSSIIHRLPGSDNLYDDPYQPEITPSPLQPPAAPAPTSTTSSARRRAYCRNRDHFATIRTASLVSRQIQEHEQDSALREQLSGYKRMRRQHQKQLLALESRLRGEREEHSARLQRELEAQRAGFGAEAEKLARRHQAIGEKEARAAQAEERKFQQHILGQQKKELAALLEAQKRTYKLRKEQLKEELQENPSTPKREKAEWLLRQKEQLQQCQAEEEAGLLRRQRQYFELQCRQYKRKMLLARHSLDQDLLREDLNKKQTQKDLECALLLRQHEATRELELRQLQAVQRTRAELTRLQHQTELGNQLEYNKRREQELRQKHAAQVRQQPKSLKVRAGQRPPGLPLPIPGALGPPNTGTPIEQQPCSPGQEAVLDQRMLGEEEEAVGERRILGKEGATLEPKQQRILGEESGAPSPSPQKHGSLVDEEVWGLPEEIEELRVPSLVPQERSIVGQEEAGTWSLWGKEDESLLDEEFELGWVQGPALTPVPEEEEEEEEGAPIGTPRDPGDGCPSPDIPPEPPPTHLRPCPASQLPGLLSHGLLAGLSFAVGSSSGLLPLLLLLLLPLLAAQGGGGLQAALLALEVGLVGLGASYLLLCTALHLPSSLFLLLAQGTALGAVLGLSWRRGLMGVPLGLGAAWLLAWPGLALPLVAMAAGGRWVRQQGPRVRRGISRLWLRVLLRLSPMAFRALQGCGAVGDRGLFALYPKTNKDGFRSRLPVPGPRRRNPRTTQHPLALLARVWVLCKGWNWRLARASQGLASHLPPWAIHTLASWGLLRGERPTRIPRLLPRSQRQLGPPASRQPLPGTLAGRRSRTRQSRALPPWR
# [2] = biological target: Rho-associated protein kinase 1 (Homo sapiens, UniProt Q13464)
# Myosin-14 = Myosin-14 (Homo sapiens, UniProt Q7Z406)
# Scaffold protein ILK = biological target: T2, Scaffold protein ILK (Homo sapiens, UniProt Q13418)
# T2 sequence (Q13418 whole entry): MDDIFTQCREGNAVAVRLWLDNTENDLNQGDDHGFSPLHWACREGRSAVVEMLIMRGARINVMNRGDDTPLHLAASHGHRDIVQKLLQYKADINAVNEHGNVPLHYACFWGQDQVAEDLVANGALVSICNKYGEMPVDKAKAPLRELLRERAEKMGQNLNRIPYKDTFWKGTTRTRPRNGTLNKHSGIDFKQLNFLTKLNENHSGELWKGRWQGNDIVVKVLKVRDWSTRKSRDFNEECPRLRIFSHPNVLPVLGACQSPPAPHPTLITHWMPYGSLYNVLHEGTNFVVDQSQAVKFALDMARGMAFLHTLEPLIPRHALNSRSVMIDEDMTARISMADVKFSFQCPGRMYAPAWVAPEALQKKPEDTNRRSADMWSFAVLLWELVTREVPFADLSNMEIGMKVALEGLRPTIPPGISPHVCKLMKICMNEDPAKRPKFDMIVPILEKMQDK
# [3] = biological target: Atypical kinase COQ8A, mitochondrial (Homo sapiens, UniProt Q8NI60)
# [4] = biological target: cAMP-dependent protein kinase type II-alpha regulatory subunit (Homo sapiens, UniProt P13861)
# Note: in the data inactive means no Kd found up to 30 µM.
# Chain of Rho-associated protein kinase 1 (Q13464 whole entry): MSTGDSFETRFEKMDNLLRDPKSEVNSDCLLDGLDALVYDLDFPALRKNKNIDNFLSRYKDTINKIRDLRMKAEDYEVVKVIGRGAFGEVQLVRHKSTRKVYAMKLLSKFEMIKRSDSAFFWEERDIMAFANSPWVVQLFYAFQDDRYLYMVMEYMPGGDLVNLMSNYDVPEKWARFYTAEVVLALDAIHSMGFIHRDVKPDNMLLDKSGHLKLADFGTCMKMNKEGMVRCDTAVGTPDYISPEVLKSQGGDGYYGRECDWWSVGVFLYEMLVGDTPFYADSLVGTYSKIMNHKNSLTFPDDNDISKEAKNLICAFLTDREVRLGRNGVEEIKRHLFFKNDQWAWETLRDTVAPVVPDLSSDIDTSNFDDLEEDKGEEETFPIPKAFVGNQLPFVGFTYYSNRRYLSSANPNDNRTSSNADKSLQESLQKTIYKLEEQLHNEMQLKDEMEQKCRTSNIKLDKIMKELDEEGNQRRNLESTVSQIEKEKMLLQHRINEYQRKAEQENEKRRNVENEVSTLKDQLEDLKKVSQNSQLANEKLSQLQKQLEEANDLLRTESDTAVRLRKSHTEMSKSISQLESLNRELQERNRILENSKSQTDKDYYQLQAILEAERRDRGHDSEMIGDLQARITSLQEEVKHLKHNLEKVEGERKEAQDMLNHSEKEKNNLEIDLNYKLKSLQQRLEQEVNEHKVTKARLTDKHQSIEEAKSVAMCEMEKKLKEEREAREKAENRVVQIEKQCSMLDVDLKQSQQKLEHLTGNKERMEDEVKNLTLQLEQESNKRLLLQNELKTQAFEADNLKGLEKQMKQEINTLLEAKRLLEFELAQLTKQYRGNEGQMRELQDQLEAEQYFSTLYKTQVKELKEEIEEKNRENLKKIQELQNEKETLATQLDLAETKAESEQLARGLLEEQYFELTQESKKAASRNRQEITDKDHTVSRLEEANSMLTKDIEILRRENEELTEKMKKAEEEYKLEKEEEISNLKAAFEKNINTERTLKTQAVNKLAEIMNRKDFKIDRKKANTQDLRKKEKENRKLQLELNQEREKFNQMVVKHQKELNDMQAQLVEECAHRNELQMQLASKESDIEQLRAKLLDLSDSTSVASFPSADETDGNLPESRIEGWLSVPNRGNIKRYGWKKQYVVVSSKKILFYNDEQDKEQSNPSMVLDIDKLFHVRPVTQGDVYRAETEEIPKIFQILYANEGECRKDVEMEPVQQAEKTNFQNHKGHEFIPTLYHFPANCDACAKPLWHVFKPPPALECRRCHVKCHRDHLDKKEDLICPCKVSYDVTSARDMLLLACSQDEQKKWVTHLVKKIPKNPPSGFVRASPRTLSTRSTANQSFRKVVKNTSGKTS
# Chain of Atypical kinase COQ8A, mitochondrial (Q8NI60 whole entry): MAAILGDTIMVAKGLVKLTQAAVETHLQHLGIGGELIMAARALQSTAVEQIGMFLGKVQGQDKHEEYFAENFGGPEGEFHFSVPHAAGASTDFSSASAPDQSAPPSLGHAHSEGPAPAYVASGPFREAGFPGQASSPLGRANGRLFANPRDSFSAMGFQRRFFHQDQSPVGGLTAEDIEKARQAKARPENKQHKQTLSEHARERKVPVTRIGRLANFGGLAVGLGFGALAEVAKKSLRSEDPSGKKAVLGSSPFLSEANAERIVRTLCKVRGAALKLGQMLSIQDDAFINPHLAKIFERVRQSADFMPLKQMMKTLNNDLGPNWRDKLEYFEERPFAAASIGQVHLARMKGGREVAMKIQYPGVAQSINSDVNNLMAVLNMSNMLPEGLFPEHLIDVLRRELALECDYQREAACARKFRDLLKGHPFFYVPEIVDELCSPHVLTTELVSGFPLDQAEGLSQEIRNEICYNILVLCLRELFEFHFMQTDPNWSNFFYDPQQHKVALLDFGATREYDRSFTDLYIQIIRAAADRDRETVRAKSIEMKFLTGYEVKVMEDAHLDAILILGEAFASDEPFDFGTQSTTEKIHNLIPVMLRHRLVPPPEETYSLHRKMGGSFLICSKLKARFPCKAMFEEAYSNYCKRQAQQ
# Chain of cAMP-dependent protein kinase type II-alpha regulatory subunit (P13861 whole entry): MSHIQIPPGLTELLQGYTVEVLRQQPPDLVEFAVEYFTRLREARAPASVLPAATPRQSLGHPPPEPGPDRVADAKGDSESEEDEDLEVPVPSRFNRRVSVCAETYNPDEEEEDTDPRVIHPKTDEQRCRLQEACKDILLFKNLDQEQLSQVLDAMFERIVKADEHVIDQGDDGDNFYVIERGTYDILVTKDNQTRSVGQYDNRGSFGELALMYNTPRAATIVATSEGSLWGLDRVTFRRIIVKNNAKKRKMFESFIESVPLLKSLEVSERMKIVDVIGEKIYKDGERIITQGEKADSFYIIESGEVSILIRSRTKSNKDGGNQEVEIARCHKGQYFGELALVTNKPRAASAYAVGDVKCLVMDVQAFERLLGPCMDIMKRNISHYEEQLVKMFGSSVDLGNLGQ
# Chain of Myosin-14 (Q7Z406 whole entry): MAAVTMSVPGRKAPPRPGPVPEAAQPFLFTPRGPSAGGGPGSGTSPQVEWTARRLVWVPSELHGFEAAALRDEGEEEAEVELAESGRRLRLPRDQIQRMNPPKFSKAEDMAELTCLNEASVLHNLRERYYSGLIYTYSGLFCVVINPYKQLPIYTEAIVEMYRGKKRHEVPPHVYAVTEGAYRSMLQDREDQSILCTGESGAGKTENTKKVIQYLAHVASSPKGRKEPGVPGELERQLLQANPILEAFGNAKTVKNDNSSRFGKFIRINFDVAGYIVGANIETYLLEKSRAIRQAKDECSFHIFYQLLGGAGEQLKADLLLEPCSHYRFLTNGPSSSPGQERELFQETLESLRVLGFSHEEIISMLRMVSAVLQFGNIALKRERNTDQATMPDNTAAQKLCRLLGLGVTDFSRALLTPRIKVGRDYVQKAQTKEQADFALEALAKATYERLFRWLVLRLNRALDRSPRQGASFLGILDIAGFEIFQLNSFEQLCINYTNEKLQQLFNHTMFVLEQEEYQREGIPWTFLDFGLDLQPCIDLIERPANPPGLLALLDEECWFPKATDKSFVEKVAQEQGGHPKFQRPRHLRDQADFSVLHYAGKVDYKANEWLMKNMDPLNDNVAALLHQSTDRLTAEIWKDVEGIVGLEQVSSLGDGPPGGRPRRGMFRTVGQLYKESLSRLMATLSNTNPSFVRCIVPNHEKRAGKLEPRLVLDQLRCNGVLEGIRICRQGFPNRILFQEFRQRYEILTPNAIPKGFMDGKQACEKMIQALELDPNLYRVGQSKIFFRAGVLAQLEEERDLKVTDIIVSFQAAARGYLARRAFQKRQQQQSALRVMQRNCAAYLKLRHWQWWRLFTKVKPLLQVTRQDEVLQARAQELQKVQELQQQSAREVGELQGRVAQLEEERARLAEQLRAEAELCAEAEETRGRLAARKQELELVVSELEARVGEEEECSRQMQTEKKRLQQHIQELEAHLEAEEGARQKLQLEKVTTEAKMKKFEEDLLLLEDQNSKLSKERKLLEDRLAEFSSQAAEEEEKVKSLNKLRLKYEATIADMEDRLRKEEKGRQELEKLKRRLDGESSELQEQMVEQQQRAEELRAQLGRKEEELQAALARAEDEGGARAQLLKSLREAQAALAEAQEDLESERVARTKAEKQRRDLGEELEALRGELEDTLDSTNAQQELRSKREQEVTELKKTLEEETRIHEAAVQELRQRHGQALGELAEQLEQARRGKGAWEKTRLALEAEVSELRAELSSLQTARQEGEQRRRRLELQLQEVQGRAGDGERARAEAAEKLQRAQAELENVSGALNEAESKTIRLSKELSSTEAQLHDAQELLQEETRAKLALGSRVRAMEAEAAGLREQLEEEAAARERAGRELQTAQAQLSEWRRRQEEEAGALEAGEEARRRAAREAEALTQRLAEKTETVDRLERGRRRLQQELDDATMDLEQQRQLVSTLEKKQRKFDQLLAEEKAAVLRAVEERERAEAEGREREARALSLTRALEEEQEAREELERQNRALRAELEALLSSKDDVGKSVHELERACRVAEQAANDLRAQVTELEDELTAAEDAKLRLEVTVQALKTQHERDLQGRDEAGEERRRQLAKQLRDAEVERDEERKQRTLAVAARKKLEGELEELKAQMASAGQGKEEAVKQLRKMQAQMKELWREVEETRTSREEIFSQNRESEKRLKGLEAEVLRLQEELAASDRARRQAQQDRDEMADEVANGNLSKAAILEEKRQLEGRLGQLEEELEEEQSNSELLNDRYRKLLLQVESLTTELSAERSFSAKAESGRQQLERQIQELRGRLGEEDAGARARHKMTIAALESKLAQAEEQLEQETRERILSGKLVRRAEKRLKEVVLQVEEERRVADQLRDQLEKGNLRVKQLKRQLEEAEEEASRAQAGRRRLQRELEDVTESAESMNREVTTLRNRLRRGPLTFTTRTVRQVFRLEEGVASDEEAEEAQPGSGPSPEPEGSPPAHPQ
Compound,Kd [1],Kd [2],Kd (Myosin-14),Kd (Scaffold protein ILK),Kd [3],Kd [4]
CCCS(=O)(=O)Nc1ccc(F)c(C(=O)c2c[nH]c3ncc(-c4ccc(Cl)cc4)cc23)c1F [VEMURAFENIB],> 30 µM (inactive),> 30 µM (inactive),> 30 µM (inactive),> 30 µM (inactive),> 30 µM (inactive),> 30 µM (inactive)
COc1cc2nccc(Oc3ccc(NC(=O)NC4CC4)c(Cl)c3)c2cc1C(N)=O [LENVATINIB],> 30 µM (inactive),> 30 µM (inactive),> 30 µM (inactive),> 30 µM (inactive),> 30 µM (inactive),> 30 µM (inactive)
COc1cc(N2CCC(N3CCN(C)CC3)CC2)ccc1Nc1ncnc(Nc2ccccc2S(=O)(=O)C(C)C)n1 [ASP-3026],> 30 µM (inactive),> 30 µM (inactive),–,> 30 µM (inactive),> 30 µM (inactive),> 30 µM (inactive)
CCn1c(=O)c(-c2cc[nH]n2)cc2c(C)nc(N)nc21 [VOXTALISIB],> 30 µM (inactive),> 30 µM (inactive),> 30 µM (inactive),> 30 µM (inactive),> 30 µM (inactive),> 30 µM (inactive)
O=c1sn(-c2cccc3ccccc23)c(=O)n1Cc1ccccc1 [TIDEGLUSIB],> 30 µM (inactive),> 30 µM (inactive),> 30 µM (inactive),–,> 30 µM (inactive),> 30 µM (inactive)
C[C@@H](c1ccc2nccn2c1)n1nnc2ncc(-c3cnn(C)c3)nc21 [SAVOLITINIB],> 30 µM (inactive),> 30 µM (inactive),> 30 µM (inactive),–,> 30 µM (inactive),> 30 µM (inactive)
C1=C/COCc2cc(ccc2OCCN2CCCC2)Nc2nccc(n2)-c2cccc(c2)COC/1 [PACRITINIB],3.37 µM (active),> 30 µM (inactive),> 30 µM (inactive),–,> 30 µM (inactive),> 30 µM (inactive)
CNC(=O)CN1CCC(Oc2cc3c(Nc4cccc(Cl)c4F)ncnc3cc2OC)CC1 [SAPITINIB],> 30 µM (inactive),> 30 µM (inactive),> 30 µM (inactive),> 30 µM (inactive),> 30 µM (inactive),> 30 µM (inactive)
CCc1cnn2c(NCc3ccc[n+]([O-])c3)cc(N3CCCC[C@H]3CCO)nc12 [DINACICLIB],2.23 µM (active),–,> 30 µM (inactive),> 30 µM (inactive),> 30 µM (inactive),> 30 µM (inactive)
Cn1cc(-c2ccc(F)c(C(F)(F)F)c2)nc1C1CCN(c2ncnc3[nH]ncc23)CC1 [LY-2584702],> 30 µM (inactive),> 30 µM (inactive),> 30 µM (inactive),> 30 µM (inactive),> 30 µM (inactive),–
COc1cc2nccc(Oc3ccc(NC(=O)Nc4cc(C)on4)c(Cl)c3)c2cc1OC [TIVOZANIB],> 30 µM (inactive),> 30 µM (inactive),> 30 µM (inactive),> 30 µM (inactive),> 30 µM (inactive),> 30 µM (inactive)
CC(C)Nc1cc(-c2c[nH]c(C(=O)N[C@H](CO)c3cccc(Cl)c3)c2)c(Cl)cn1 [ULIXERTINIB],> 30 µM (inactive),–,> 30 µM (inactive),> 30 µM (inactive),> 30 µM (inactive),> 30 µM (inactive)

# Further lines, results first:
Kd [1],Kd [2],Kd (Myosin-14),Kd (Scaffold protein ILK),Kd [3],Kd [4],Compound
> 30 µM (inactive),> 30 µM (inactive),> 30 µM (inactive),> 30 µM (inactive),> 30 µM (inactive),–,C[C@@H](Nc1cc(F)cc(F)c1)c1cc(C(=O)N(C)C)cc2c(=O)cc(N3CCOCC3)oc12 [AZD-8186]
> 30 µM (inactive),> 30 µM (inactive),> 30 µM (inactive),> 30 µM (inactive),> 30 µM (inactive),> 30 µM (inactive),CN1CCC(CNc2ccc3ncc(-c4cccc(OC(F)(F)F)c4)n3n2)CC1 [SGI-1776]
–,–,> 30 µM (inactive),> 30 µM (inactive),–,0.052 µM,CCn1c(-c2nonc2N)nc2c(C#CC(C)(C)O)ncc(OC[C@H]3CCCNC3)c21 [GSK-690693]
–,–,> 30 µM (inactive),> 30 µM (inactive),65.3 µM (active),–,Cc1nc(N)sc1-c1ccnc(Nc2ccc(N3CCOCC3)cc2)n1 [CYC-116]

# Reference: ChEMBL document CHEMBL3991601, “The target landscape of clinical kinase drugs” (Science, 2017)
